Laboratory results taken from patent US6423745B1, “Pyrethroid compound and composition for controlling pest containing the same as an active ingredient” (Sumitomo Chemical Co., Ltd., priority 1998, dated 2002).

What was measured:
[1] = test system: American cockroach (Periplaneta americana); assay: Insecticidal activity against American cockroach (topical application); assay type: in vivo; details: 72 h, read-out: Insecticidal activity against American cockroach (LD50)
Description: Insecticidal Activity Against American Cockroach (Periplaneta americana) and Toxicity to Rat Insecticidal Activity Against American Cockroach
Each of the present compound and reference compound A were diluted with acetone to prepare dilutions of prescribed concentrations. Each dilution was applied on the sterna of female adult American cockroaches with a micro-applicator in a volume of 1.0 μl per insect. Then, the insects were given water and diet. After 72 hours, the dead and alive were counted. From the mortality, LD50 (mg/kg) value was determined.

Toxicity to rat = details: in vivo, male rats, dilution in corn oil, 10 ml/kg, mortality after 7 days
Description: Each of the present compound and reference compound A was diluted with corn oil to predetermined concentrations. Each of the dilutions thus prepared was administered to male rats in an amount of 10 ml/kg. The rats were given water and diet. After 7 days, the dead and alive were counted for mortality. From the mortality, LD50 (mg/kg) value was determined.

[2] = test system: common mosquito (Culex pipiens pallens); assay: Effect of spraying of an oil formulation on common mosquito (knock-down); assay type: in vivo; details: 0.7 ml sprayed in 0.34 m^3 glass chamber, female adults counted after two minutes
Description: Effect of spraying of an oil formulation on common mosquito (Culex pipiens pallens)
Ten female adult common mosquitoes were released in a glass chamber (70 cm cube, capacity: 0.34 m^3). 0.7 Milliliter of an oil formulation containing a predetermined concentration (shown in Table 2) of the present compound prepared according to Formulation Example 7 was sprayed into the chamber through a small side window of the chamber with a spray gun. The knocked-down common mosquitoes were counted in two minutes after the spraying.
(§1) The same test procedure was repeated for (S)-2-methyl-4-oxo-3-(2-propynyl)-cyclopent-2-enyl (1RS)-cis-3-(2,2-dichlorovinyl)-2,2-dimethylcyclopropanecarboxylate (hereinafter referred to as reference compound A).
In Table 2, the knocking-down activity is indicated according to the following criterion: […]

[3] = test system: common mosquito (Culex pipiens pallens); assay: Effect of a mosquito coil on common mosquito (knock-down); assay type: in vivo; set-up: key: Excellent: All the insects were knocked down (the total in the two replications).; Good: 1 to 3 insects were not knocked down (ditto).; Mediocre: 4 to 6 insects were not knocked down (ditto).; Bad: 7 or more insects were not knocked down (ditto); details: 0.3 g coil burnt 30 seconds in 0.34 m^3 glass chamber, female adults counted after fifteen minutes
Description: Effect of a mosquito coil on common mosquito (Culex pipiens pallens)
A base material for mosquito coil (obtained by stirring a 4:3:3 mixture of Tabu powder, Pyrethrum marc and wood powder, adding water thereto, thoroughly kneading the resulting mixture, and molding and drying the kneaded mixture) was uniformly impregnated with a solution of the present compound in acetone so that the material contains a predetermined amount of the compound. The resultant base material was air-dried to obtain a mosquito coil.
Ten female adult common mosquitoes were released in a glass chamber (70 cm cube, capacity: 0.34 m^3). 0.3 Gram of a mosquito coil containing the present compound prepared according to the procedure described above was set on a holder in the center of bottom of the chamber, ignited at one end thereof, and taken out of the chamber after 30 seconds of combustion. The knocked-down common mosquitoes were counted in fifteen minutes after the setting of the coil.
as §1
In Table 1, the knocking-down activity is indicated according to the following criterion: […]

[4] = Calculation of safety factor (rat LD50 / American cockroach LD50); details: [Toxicity to rat (LD50 value)]/[Insecticidal activity against American cockroach (LD50 value)]
Description: Calculation of Safety Factor
The safety factor was calculated from the insecticidal activity against American cockroach and the toxicity to rat according to the following equation.
Safety factor=[Toxicity to rat (LD50 value)]/[Insecticidal activity against American cockroach (LD50 value)]

| Compound | LD50 [1] [mg/kg] | LD50 at 7 days (Toxicity to rat) [mg/kg] | Knocking-down activity ([2]; concentration 0.025 % W/W) | Knocking-down activity ([3]; concentration 0.5 % W/W) | Safety factor [4] | Knocking-down activity ([2]; concentration 0.05 % W/W) | Knocking-down activity ([3]; concentration 1.0 % W/W) |
| --- | --- | --- | --- | --- | --- | --- | --- |
| C#CCC1=C(C)[C@@H](OC(=O)[C@@H]2[C@@H](C=C(Cl)Cl)C2(C)C)CC1=O [Present compound, (S)-2-methyl-4-oxo-3-(2-propynyl)-cyclopent-2-enyl (1R)-trans-3-(2,2-dichlorovinyl)-2,2-dimethylcyclopropanecarboxylate] | 0.72 | > 300 | Good (3 or less insects were not knocked down (the total in the two replications).) | Excellent | >420 |  |  |
| C#CCC1=C(C)[C@@H](OC(=O)[C@@H]2[C@H](C=C(Cl)Cl)C2(C)C)CC1=O (racemic) [A, (S)-2-methyl-4-oxo-3-(2-propynyl)-cyclopent-2-enyl (1RS)-cis-3-(2,2-dichlorovinyl)-2,2-dimethylcyclopropanecarboxylate] | 4.4 | < 100 | Bad (7 or more insects were not knocked down (ditto).) | Bad (7 or more insects were not knocked down (ditto).) | <23 | Bad (7 or more insects were not knocked down (ditto).) | Bad (7 or more insects were not knocked down (ditto).) |
